In US20210106567A1, “COMPOSITIONS AND METHODS FOR INHIBITING CARP-1 BINDING TO NEMO” (United States Government As Represented By The Department …, priority 2019, published 2021):

Legend:
MDR1 = assay: Levels of drug efflux pump MDR1; format: cell-based, human; conditions: MDA-MB-468 cells
Excerpt: Of note is that SNI-1 in combination with Adriamycin provoked a greater inhibition of tumor growth when compared with the tumor growth inhibition noted in animals treated with either agent alone. […] Since TNBCs and many other cancers are often known to express drug efflux pumps that contribute to lower efficacy of drugs in clinic and development of drug-resistant tumors, it is likely that the presence/expression of these drug efflux pumps function in part to interfere with a robust anti-tumor response to a combination of SNI-1 and Adriamycin.

4T1 TNBC tumors = assay: 4T1 TNBC syngeneic tumor efficacy study in Balb/c mice; format: in vivo, mouse; conditions: for serum levels of TNFα and IL-1β: ELISA of sera
Experimental: Establishment of TNBC cell-derived xenografts in Syngeneic mice: Generation of 4T1 TNBC cell-derived sub-cutaneous xenografts in Balb/c mice were performed (Cheriyan et al. (2016) Oncotarget 7, 73370-73388; and Cheriyan et al. (2017) Oncotarget 8, 104928-104945). BALB/cAnNCr, 6-8-weeks old, female mice were purchased from Charles River Laboratories (Horsham, Pa.). Following suitable acclimation of animals, 1×10^6 4T1 TNBC cells were re-suspended in 200 μl of sterile saline, and implanted in the flanks using a 27-gauge needle. Tumors were allowed to grow to 500-1000 mg (˜10 days), and the aseptically harvested, minced into 3-4 mm^3 (30 mg) fragments and transplanted SC into naïve recipient mice using a standard 12 gauge trocar to serially maintain the tumor in vivo. For efficacy studies, tumors serially maintained in vivo were aseptically harvested and minced into 3-4 mm^3 (30 mg) fragments, then bilaterally transplanted subcutaneously along the flanks using a standard 12 gauge trocar. […] For the efficacy studies, SNI-1 was formulated in 8% DMSO (v/v) and 8% Cremophor (v/v) in cell grade water, pH4 as diluent.
Clinical grade ADR stock (2 mg/mL) was diluted to the appropriate concentration with cell grade water; pH4 and clinical grade CIS (1 mg/ml) diluted with USP 0.9% saline; pH6). Mice were monitored daily for changes in condition and body weight. Tumors were measured three times weekly by caliper and tumor volume (mg) was calculated using the following formula: (A×B2)/2 where A and B are the tumor length and width (in mm), respectively. […] Efficacy was also assessed quantitatively using tumor growth delay (T−C) defined as the difference between the median time (in days) required for the treatment group tumors (T) to reach 1000 mg and the median time (days) for the control group tumors to reach the same volume. Post last treatment, tumor tissue and samples from various organs (spleen, liver, kidney, heart, bone, and lungs) were collected. Additionally, the whole blood samples were obtained from a representative tumor-bearing mouse from each group via terminal cardiac puncture. Immuno-histochemical analyses of the tumor and tissue samples were performed for expression of activated RelA (serine 536 phosphorylated p65), total RelA, cleaved caspase-3, and CARP-1 proteins. The levels of pro-inflammatory cytokines in the sera were analyzed by sandwich ELISA assays following methods detailed herein (Cheriyan et al. (2016) Oncotarget 7, 73370-73388; and Cheriyan et al. (2017) Oncotarget 8, 104928-104945).

cleaved RIPK1 = assay: Western blot for RIPK1 cleavage; format: cell-based
Excerpt: (§1) The cells were lysed to prepare protein extracts.

[1] = system: p65/RelA activation and phosphorylation of NEMO; assay: Western blot for canonical NF-κB activation; format: cell-based; conditions: single agent, Western blot
Excerpt: as §1

[2] = system: mammospheres derived from human TNBC PDX tumors; assay: Three-dimensional mammosphere assay (MTT); format: cell-based; conditions: Homo sapiens; 5 μM for 48 h
Experimental: Three-dimensional Mammosphere Assays: The PDX tumor cells were dissociated from the tumor fragments, and cultured for 2-dimensional and mammosphere studies in vitro (Cheriyan et al. (2016) Oncotarget 7, 73370-73388). Briefly, the cells were washed twice in 1×PBS, trypsinized, and pelleted at 200×g at room temperature. Cells were then re-suspended in 5 ml of mammosphere media (DMEM/F12 containing 2 mM L-glutamine, 100 U/ml penicillin, 100 U/ml streptomycin, 1×B27 supplement, 20 ng/ml recombinant human epidermal growth factor (EGF; Sigma), 10 ng/ml recombinant human basic fibroblast growth factor (bFGF; R&D Systems). Approximately 5000 viable cells per ml was then seeded in an ultra-low adherent 60 mm plate and incubated at 37° C. and 5% CO2 for two weeks without disturbing the plates. After the mammospheres formed, fresh media with or without Adriamycin (5 μM), SNI-1 (2.5 or 5.0 μM), or a combination of these agents was added and the cells incubated for additional 48 h at 37° C. and 5% CO2. The mammospheres in the untreated and treated plates were photographed, and the cells were then dissociated to determine their viabilities by the MTT assay (Cheriyan et al. (2016) Oncotarget 7, 73370-73388).

MDA-MB-231 TNBC cells = conditions: Wen et al. (2018); read-out: IC50, growth inhibition; cited from earlier work
[3] = system: parental and chemo-resistant human and murine TNBC cells and parental renal cancer cells; assay: Cytokine ELISA of culture media, chemotherapy-induced secretion; format: cell-based; conditions: single agent
[4] = system: RENCA renal cancer tumors; assay: RENCA cell-derived syngeneic kidney cancer tumor model; conditions: throughout the experiment
Experimental: The subcutaneous tumor bearing mice were treated with indicated agents. […] The end-points for assessing anti-tumor activity involved qualitative determination via tumor growth inhibition (% T/C) where T is the median tumor volume of the treated mice and C is the median tumor volume of the Control mice on any given day of measurement.

| SMILES | levels of drug efflux pump MDR1 (MDR1) | serum levels of TNFα and IL-1β (4T1 TNBC tumors) | expression of cleaved RIPK1 (cleaved RIPK1) | p65/RelA activation and phosphorylation of NEMO [1] | inhibition at 5 µM [2] | IC50 (MDA-MB-231 TNBC cells) | levels of TNFα, IL-8, and IL-1β in the media [3] | weight loss in animals [4] | phosphorylated p65/RelA in tumors (immuno-histochemistry) (4T1 TNBC tumors; mouse, in vivo) | cleaved caspase-3 in tumors (immuno-histochemistry) (4T1 TNBC tumors; versus untreated control animal) |
| --- | --- | --- | --- | --- | --- | --- | --- | --- | --- | --- |
| COc1cccc2c1C(=O)c1c(O)c3c(c(O)c1C2=O)C[C@@](O)(C(=O)CO)C[C@@H]3O[C@H]1C[C@H](N)[C@H](O)[C@H](C)O1 [Adriamycin] | moderate increase | robustly stimulated | induced expression of cleaved RIPK1 | robust increase | ~30% | ~3000 nM | robust increase | – | – | – |
| N.N.[Cl][Pt][Cl] [Cisplatin] | robust increase | robustly stimulated | – | robust increase | – | – | robust increase | 0.8-3.2% | presence of phosphorylated p/65RelA | strong presence of cleaved caspase-3 |
